Counter-ions that a name gives are not always drawn. Where a SMILES comes first, the peptide text is derived from it. Bridges are numbered along the chain shown (N, C = ends). Where no end group is shown, it is not given here. [ ]: non-standard residue; d: D form. The star is where a group is joined. Tfa = O=C(C(F)(F)F)*

This note sets out measurements from patent US10195578B2, “Peptide library production method, peptide library, and screening method” (The University of Tokyo, priority 2010, dated 2019).

This test addresses T1, SIRT2 (Homo sapiens, UniProt Q8IXJ6).
T1 sequence (Q8IXJ6 1-389): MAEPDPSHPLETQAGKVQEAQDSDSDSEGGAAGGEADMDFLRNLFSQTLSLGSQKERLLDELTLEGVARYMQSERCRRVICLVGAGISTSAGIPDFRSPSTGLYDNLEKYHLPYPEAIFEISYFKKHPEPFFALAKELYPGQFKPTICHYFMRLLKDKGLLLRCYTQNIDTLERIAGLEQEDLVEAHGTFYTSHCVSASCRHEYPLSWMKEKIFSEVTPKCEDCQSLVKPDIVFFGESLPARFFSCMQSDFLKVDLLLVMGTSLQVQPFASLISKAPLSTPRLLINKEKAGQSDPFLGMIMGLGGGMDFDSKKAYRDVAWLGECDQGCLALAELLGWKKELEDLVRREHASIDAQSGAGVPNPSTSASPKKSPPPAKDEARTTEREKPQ
In words: Evaluation of inhibitory activity of peptides against SIRT2 (fluorescence-using system). It is filed as biochemical. Particulars: peptide at 1 μM; FIG. 3. The source says: In an evaluation system using fluorescence, the inhibitory activity of the selected peptides against SIRT2 was studied. More specifically, first, peptides to be deacetylated with SIRT2 each having, at both ends thereof, a fluorescent group and a quenching group is deacetylated by mixing with SIRT2. When the resulting peptides are reacted with protease that cleaves only a deacetylated peptide, the quenching group is dissociated from the fluorescent group of only the peptides deacetylated with SIRT2 and fluorescence is emitted. During this deacetylation reaction, presence of an inhibitor against SIRT2 retards the progress of deacetylation of the substrate peptide and fluorescence intensity obtained in the end decreases. This means that the inhibitory ability of the selected peptides can be evaluated by the intensity of fluorescence observed in the end.
Take `CC[C@H](C)[C@@H]1NC(=O)[C@H](CCCNC(=N)N)NC(=O)[C@H](Cc2ccccc2)NC(=O)[C@H](CC(N)=O)NC(=O)[C@H](CO)NC(=O)[C@H](Cc2ccc(O)cc2)NC(=O)CSC[C@@H](C(=O)NCC(=O)N[C@@H](CO)C(=O)NCC(=O)N[C@@H](CO)C(=O)NCC(=O)N[C@@H](CO)C(=O)O)NC(=O)[C@H](CO)NC(=O)[C@H](CO)NC(=O)[C@H](CC(N)=O)NC(=O)[C@H](CO)NC(=O)[C@H](Cc2ccc(O)cc2)NC(=O)[C@H](CCCNC(=N)N)NC(=O)[C@H](CCCCNC(=O)C(F)(F)F)NC1=O` [2L-08, XSNFRIZRYSNSSC] ({CH2CO}-YSNFRIK(Tfa)RYSNSSCGSGSGS-OH; thioether N-14; N-terminus and C-terminus assumed): the “inhibitory ability against SIRT2 (activity of SIRT2, fluorescence intensity)” value was “completely suppressed the activity of SIRT2”.
Next, XHTYHNZRRTNYYC [2L-05]: “completely suppressed the activity of SIRT2”; `CC[C@H](C)[C@@H]1NC(=O)[C@H](CCCNC(=N)N)NC(=O)[C@H](Cc2ccc(O)cc2)NC(=O)[C@H](CC(=O)O)NC(=O)[C@H](Cc2c[nH]cn2)NC(=O)[C@@H](Cc2ccc(O)cc2)NC(=O)CSC[C@@H](C(=O)NCC(=O)N[C@@H](CO)C(=O)NCC(=O)N[C@@H](CO)C(=O)NCC(=O)N[C@@H](CO)C(=O)O)NC(=O)[C@@H]2CCCN2C(=O)[C@H](Cc2ccc(O)cc2)NC(=O)[C@H]([C@@H](C)O)NC(=O)[C@H](Cc2c[nH]cn2)NC(=O)[C@H](Cc2ccc(O)cc2)NC(=O)[C@H](CCCNC(=N)N)NC(=O)[C@H](CCCCNC(=O)C(F)(F)F)NC1=O` [2D-08, XHDYRIZRYHTYPC] ({CH2CO}-[dY]HDYRIK(Tfa)RYHTYPCGSGSGS-OH; thioether N-14; N-terminus and C-terminus assumed): “completely suppressed the activity of SIRT2”; “XYNTIIZTYGC ({CH2CO}-[dY]YNTIIK(trifluoroacetyl)TYGCGSGSGS; thioether N-11 (inferred)) [2D-03, thioether-cyclized peptide from NNC library; X = α-N-chloroacetyl-D-tyrosine, Z = ε-N-trifluoroacetyllysine]”: “completely suppressed the activity of SIRT2”.
